Laboratory results from patent US10414721B1, “Inhibitor of endocannabinoid cellular reuptake” (University of Bern, priority 2018, dated 2019).
Entries after “also recorded” stand apart in the source; their conditions may differ.

Columns and labels:
[1] = LC-MS/MS quantification of WOBE437 in tissues after i.p. injection; assay type: in vivo, mouse; design: highest concentration in brain: unit not given here
Procedure: (§1) In order to investigate whether there was a link between the in vivo pharmacological effects of WOBE437 and the inhibition of EC uptake in vitro, the levels of WOBE437, AEA, 2-AG and related lipids in different tissues were quantified by LC-MS/MS. […] The Cbrain/Cplasma ratio (Kp) of WOBE437 was 0.65 after 5 min, 1.64 after 15 min and reached 1.9 after 30 and 60 min (FIGS. 4A and 4E). The peak concentration of WOBE437 in the brain was 780±267 nM, thus being in line with the bioactive concentrations determined in cellular assays. […] Only at 15 min post-injection, WOBE437 prevented the moderate increase of 2-AG induced by DMSO (FIG. 4C). […] On the contrary, 2-AG levels increased 1.7-fold compared to vehicle at 1 h post-injection (FIG. 4G). […] Repeated administrations of WOBE437 led to a significant 3-fold increase of corticosterone in the brain, which mirrors the changes observed in plasma (FIG. 4H). In peripheral organs, WOBE437 reached peak concentrations of 5-20 nmol/g tissue, without any signs of accumulation over 7 days. […] However, EC concentrations were not affected by repeated administrations of WOBE437 in peripheral tissues. Again, corticosterone levels were increased in spleen, liver and kidney.
(§2) WOBE437, AEA, 2-AG, other lipids and hormones were quantified by LC-MS/MS in different biological matrices (cells, human whole blood, rodent tissues) as reported in Chicca 2017.

[2] = Cell penetration (intracellular LC-MS/MS and PAMPA); assay type: in vitro ADME
Description: Cell penetration was further investigated by quantifying intracellular levels of WOBE437 by LC-MS/MS and measuring its physicochemical distribution in the parallel artificial membrane permeability assay (PAMPA).

[3] = system: AEA uptake in Neuro2a mouse neuroblastoma cells; experiment: AEA uptake inhibition in Neuro2a cells; assay type: cell-based
Procedure: (§3) All radioactivity-based AEA and 2-AG uptake and release assays performed in U937, and HMC-1 cells were carried out using two different assay formats as previously reported. AEA and 2-AG uptake assay in Neuro2a and primary mouse cortical neurons were performed with a different method disclosed in Chicca 2017.

C57BL6/J mice = experiment: LC-MS/MS quantification of endocannabinoids, lipids and corticosterone after i.p. injection; assay type: in vivo, mouse
Procedure: as §1, §2

[4] = system: EC efflux and release in U937 cells; experiment: EC efflux and release in U937 cells; assay type: cell-based
Procedure: as §3

BALB/c mice = experiment: Complete Freund's adjuvant induced monoarthritis; assay type: in vivo, mouse
Procedure: BALB/c mice were anesthetized with xylazine/ketamine (5 and 10 mg/kg, respectively) and subsequently monoarthritis was induced by intra-articular injection of complete Freund's adjuvant (CFA, 40 μL; Sigma-Aldrich, St. Louis, USA) into the right knee joint. The inflammation was allowed to develop for 14 days prior to pharmacological treatments starting at day 15 for 1 or 3 days, respectively. Mechanical sensitivity (allodynia) and knee diameter (edema) were evaluated 1 h post treatment in the ipsilateral and contralateral knees. Articular sensitivity was evaluated using a digital algometer (Bioseb, USA). […] A cut-off force of 300 g was considered to avoid damage in the tissue. The measurements were done in triplicates and the average was considered for the statistical analysis. To evaluate the degree of inflammation, knee diameter was measured in both extremities using a digital micrometer (Mitutoyo, USA). WOBE437 was administered at doses of 2.5, 5 or 10 mg/kg, either as single dose or for 3 days treatment. To evaluate the involvement of CB1 and CB2 receptors, TRPV1 and PPARγ, rimonabant (5 mg/kg, CB1 receptor antagonist/inverse agonist), SR144528 (3 mg/kg, CB2 receptor antagonist/inverse agonist; Cayman Chemical, USA), capsazepine (5 mg/kg, TRPV1 antagonist; Tocris Bioscience, UK) and GW9662 (3 mg/kg, PPARγ antagonist; Tocris Bioscience, UK) were injected 30 min before WOBE437 administration. Indomethacin (5 mg/kg; Sigma-Aldrich, USA) was used as a reference drug (positive control). For all the compounds, dimethylsulfoxide (DMSO) was used as vehicle (20 μL, i.p.).

[5] = 7 days of daily treatment, 10 mg/kg i.p.

SMILES: CCCCCCC/C=C/C=C/C(=O)NCCc1ccc(OC)c(OC)c1 [WOBE437, (2E,4E)-N-[2-(3,4-Dimethoxyphenyl)ethyl]dodeca-2,4-dienamide]
- peak concentration in the brain ([1]; 10 mg/kg i.p.): 780 ± 267 nM
- peak concentrations in peripheral organs ([1]; 10 mg/kg i.p.): 5-20 nmol/g tissue
- peak plasma concentration ([1]; 10 mg/kg i.p.): 492±103
- time of highest brain concentration ([1]; 10 mg/kg i.p.): 30 min
- time of peak plasma concentration ([1]; 10 mg/kg i.p.): 15 min
- brain concentration ([1]; 10 mg/kg i.p., 1 h): 652±165 pmol/g brain
- Cbrain/Cplasma ratio (Kp) ([1]; 10 mg/kg i.p., after 15 min): > 1
- highest concentration in brain ([1]; 10 mg/kg i.p., after 30 min): 919±314
- concentration at 1 h ([1]; mouse, brain, ip, 1 h after a single injection, 10 mg/kg i.p., read-out: estimated brain concentration): 555 nM
- concentration at 7 days ([1]; mouse, brain, ip, after 7 days of treatment, 10 mg/kg i.p. daily, read-out: estimated brain concentration): 926 nM
- Kp at 1 h ([1]; mouse, brain/plasma, ip, 10 mg/kg, 10 mg/kg i.p., after 30 and 60 min, read-out: Cbrain/Cplasma ratio (Kp)): 1.9
- Kp at 5 min ([1]; mouse, brain/plasma, ip, 10 mg/kg, 10 mg/kg i.p., after 5 min, read-out: Cbrain/Cplasma ratio (Kp)): 0.65
- Kp at 0.25 h ([1]; mouse, brain/plasma, ip, 10 mg/kg, 10 mg/kg i.p., after 15 min, read-out: Cbrain/Cplasma ratio (Kp)): 1.64
- half-life ([1]; mouse, plasma, ip, 10 mg/kg i.p.): 3.38 h
- cell membrane penetration [2]: does not significantly penetrate cell membranes
- Hill slope, AEA uptake ([3]; Neuro2a cells): −0.705
- inhibition at 1 µM ([3]; mouse/rat NG108-15, N2a, 2-10 min of incubation): 35%
- inhibition at 1 µM ([3]; mouse/rat NG108-15, N2a, 15-20 min of incubation): 20%
- IC50 ([3]; mouse/rat NG108-15, N2a, Neuro2a cells): 55 ± 18 nM
- brain 2-AG level increase compared to vehicle (DMSO) (C57BL6/J mice; [5]): 1.5 fold
- brain AEA level increase compared to vehicle (DMSO) (C57BL6/J mice; [5]): 1.5 fold
- circulating concentration of corticosterone (C57BL6/J mice; after 7 days): doubled
- concentrations of other lipids (NAEs, AA, prostaglandins and progesterone) (C57BL6/J mice; brain, plasma and peripheral organs): not significantly altered
- increase of corticosterone levels in brain, plasma and peripheral organs (C57BL6/J mice; repeated administration): 2-4 fold
- increase of corticosterone in the brain (C57BL6/J mice; repeated administrations): 3 fold
- EC concentrations in peripheral tissues (C57BL6/J mice; repeated administrations, 10 mg/kg): not affected; also recorded: did not significantly alter
- AEA and 2-AG levels in plasma (C57BL6/J mice; single and repeated injection(s)): not significantly affected
- 2-AG levels in peripheral organs (C57BL6/J mice; single injection): not altered in the spleen, but dropped significantly after 60-360 min in liver and kidney
- AEA level in peripheral organs (C57BL6/J mice; single injection): did not change in liver, whereas in kidney and spleen it moderately diminished
- brain AEA levels compared to basal level (C57BL6/J mice; single injection): did not change
- brain 2-AG level increase compared to vehicle (C57BL6/J mice; single injection 10 mg/kg i.p., 1 h post-injection): 1.7 fold
- inhibition of EC release [4]: 20%
- effect on EC release ([4]; cells stimulated with ATP, thapsigargin and ionomycin): blocked the release of both ECs
- effect on AEA efflux ([4]; pre-loaded U937 cells): inhibited the efflux of AEA
- antiallodynia and antiinflammatory effects after rimonabant, SR144528 or GW9662 pre-treatment (BALB/c mice; 10 mg/kg i.p., 3 days): fully abolished
- reduction of inflammation (edema) (BALB/c mice; 10 mg/kg i.p., 3 days): 58%
- reduction in allodynia (BALB/c mice; 10 mg/kg i.p., 3 days, as compared to contralateral knee): 52%
- knee diameter (BALB/c mice; 10 mg/kg i.p., 3 days, vehicle 6.5±0.9, contralateral 4.5±0.3): 5.3±0.4 mm
- allodynia after single dose (BALB/c mice; 10 mg/kg i.p., single dose): significantly decrease allodynia
- antiallodynia effect after SR144528 (3 mg/kg) or capsazepine (5 mg/kg) pre-treatment (BALB/c mice; 10 mg/kg i.p., single dose): completely prevented
- antiallodynia effect after rimonabant or GW9662 pre-treatment (BALB/c mice; 10 mg/kg i.p., single dose): did not block
- allodynia and edema (BALB/c mice; 2.5 and 5.0 mg/kg i.p.): did not show any significant changes
